Source: patent publication US20260022142A1, “MACROCYCLIC IMMUNOMODULATORS” (Bristol-Myers Squibb Company, priority 2022, published 2026)
Numbered stars: 1 amine (or outer) side, 2 acyl side, 3 side chain; on linkers, the order of the positions; unused ones are H or OH. Bridge positions count the residues as written; N and C are the ends. Square brackets hold non-standard residues; d marks the D form. Peptide text beside a SMILES is read from it. * marks the point of attachment. ξ: configuration not given here. Bip = N[C@@H](Cc1ccc(-c2ccccc2)cc1)C(=O)O; Ala(2-furyl) = N[C@@H](Cc1ccco1)C(=O)O; Phe(3-Me) = Cc1cccc(C[C@H](N)C(=O)O)c1; NMeAEEA = CN(CCOCCOCC(=O)[*:2])[*:1]; 4Pal = N[C@@H](Cc1ccncc1)C(=O)O; Cha = N[C@@H](CC1CCCCC1)C(=O)O; dNMeN = CN[C@H](CC(N)=O)C(=O)O; Thr(3ξ) = CC(O)[C@H](N)C(=O)O; Carboxymethyl = O=C(O)C*; Orn = NCCC[C@H](N)C(=O)O; Aun = NCCCCCCCCCCC(=O)O; Dab = NCC[C@H](N)C(=O)O; AEEA = NCCOCCOCC(=O)O

Target: T1, PD-1/PD-L1 interaction (PE-labeled human PD-L1-Ig binding to Jurkat cell line over-expressing human PD-1) (Homo sapiens, UniProt Q15116)
T1 construct: expressed in transfected cells; host or cells: Jurkat
Assay: Jurkat-PD-1 Cell Binding High-Content Screening Assay (CBA)
Format: cell-based
Conditions: Jurkat cell line over-expressing human PD-1; PE-labeled PD-L1-Ig 20 nM final; read-out: Jurkat hPD1-PDL1 IC50
Outline: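 Binding of fluorescent PD-L1-Ig (phycoerythrin on Ig tag, 20 nM final, 1 h) measured by high-content imaging of fixed, Hoechst-counterstained Jurkat-hPD-1 cells. Compound added 2 h at 37° C beforehand, in DMEM with 10% fetal calf serum.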

T1 sequence (Q15116 25-288): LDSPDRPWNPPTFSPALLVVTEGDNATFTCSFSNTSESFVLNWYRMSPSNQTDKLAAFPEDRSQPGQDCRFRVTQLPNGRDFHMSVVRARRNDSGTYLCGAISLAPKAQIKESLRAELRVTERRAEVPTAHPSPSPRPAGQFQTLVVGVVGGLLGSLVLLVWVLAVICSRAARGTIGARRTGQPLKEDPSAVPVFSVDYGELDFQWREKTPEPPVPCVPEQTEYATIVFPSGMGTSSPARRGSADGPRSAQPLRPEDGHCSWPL

IC50 [nM] | Structure (SMILES)
14.6 | CC(C)C[C@H]1NC(=O)[C@H](CCCN)NC(=O)[C@H](C(C)C)NC(=O)[C@H](Cc2ccc(-c3ccccc3)cc2)NC(=O)[C@H](C(C)C)NC(=O)[C@H](Cc2c[nH]c3ccccc23)NC(=O)[C@H](CC(=O)O)NC(=O)[C@H](Cc2ccc(OCC(=O)O)cc2)NC(=O)[C@H](CCCNC(=N)N)NC(=O)CSC[C@@H](C(=O)N[C@@H](CCCN)C(=O)NCCCCCCCCCCC(=O)O)NC(=O)[C@H](C(C)O)NC(=O)[C@H](C(C)C)NC(=O)[C@H](CC2CCCCC2)NC(=O)[C@H](CCN)NC1=O (stereo partly drawn) [Compound 3344] ({CH2CO}-RY(Carboxymethyl)DWV[Bip]V[Orn][dL][Dab][Cha]V[Thr(3ξ)]C[Orn][Aun]-OH; thioether N-14)
9.1 | CC(C)C[C@H]1NC(=O)[C@H](CCCN)NC(=O)[C@H](C(C)C)NC(=O)[C@H](Cc2ccc(-c3ccccc3)cc2)NC(=O)[C@H](C(C)C)NC(=O)[C@H](Cc2c[nH]c3ccccc23)NC(=O)[C@H](CC(=O)O)NC(=O)[C@H](Cc2ccc(OCC(=O)O)cc2)NC(=O)[C@H](CCCNC(=N)N)NC(=O)CSC[C@@H](C(=O)N[C@@H](CCCN)C(=O)NCCCCCCCCCCC(=O)O)NC(=O)[C@H](CCC(=O)O)NC(=O)[C@H](C(C)C)NC(=O)[C@H](CC2CCCCC2)NC(=O)[C@H](CCN)NC1=O [Compound 3345] ({CH2CO}-RY(Carboxymethyl)DWV[Bip]V[Orn][dL][Dab][Cha]VEC[Orn][Aun]-OH; thioether N-14)
10.9 | CC(C)C[C@H]1NC(=O)[C@H](CCCN)NC(=O)[C@H](C(C)C)NC(=O)[C@H](Cc2ccc(-c3ccccc3)cc2)NC(=O)[C@H](C(C)C)NC(=O)[C@H](Cc2c[nH]c3ccccc23)NC(=O)[C@H](CC(=O)O)NC(=O)[C@H](Cc2ccc(OCC(=O)O)cc2)NC(=O)[C@H](CCCNC(=N)N)NC(=O)CSC[C@@H](C(=O)N[C@@H](CCCN)C(=O)NCCCCCCCCCCC(=O)O)NC(=O)[C@H](CCCN)NC(=O)[C@H](C(C)C)NC(=O)[C@H](CC2CCCCC2)NC(=O)[C@H](CCN)NC1=O [Compound 3346] ({CH2CO}-RY(Carboxymethyl)DWV[Bip]V[Orn][dL][Dab][Cha]V[Orn]C[Orn][Aun]-OH; thioether N-14)
3.7 | CC(C)C[C@H]1NC(=O)[C@H](CCCN)NC(=O)[C@H](C(C)C)NC(=O)[C@H](Cc2ccc(-c3ccccc3)cc2)NC(=O)[C@H](C(C)C)NC(=O)[C@H](Cc2c[nH]c3ccccc23)NC(=O)[C@H](CC(=O)O)NC(=O)[C@H](Cc2ccc(OCC(=O)O)cc2)NC(=O)[C@H](CCCNC(=N)N)NC(=O)CSC[C@@H](C(=O)NCCOCCOCC(=O)NCCCCCCCCCCC(=O)O)NC(=O)[C@H](CCCN)NC(=O)[C@H](C(C)C)NC(=O)[C@H](CC2CCCCC2)NC(=O)[C@H](CCN)NC1=O [Compound 3347] ({CH2CO}-RY(Carboxymethyl)DWV[Bip]V[Orn][dL][Dab][Cha]V[Orn]C[AEEA][Aun]-OH; thioether N-14)
12.8 | Cc1cccc(C[C@@H]2NC(=O)[C@H](CC(=O)O)NC(=O)[C@H](Cc3ccc(OCC(=O)O)cc3)NC(=O)[C@H](Cc3ccncc3)NC(=O)CSC[C@@H](C(=O)N[C@@H](CCCN)C(=O)NCCCCCCCCCCC(=O)O)NC(=O)[C@H](CCCN)NC(=O)[C@H](C(C)C)NC(=O)[C@H](CC3CCCCC3)NC(=O)[C@H](CCN)NC(=O)[C@@H](CC(C)C)NC(=O)[C@H](CCCN)NC(=O)[C@H](C(C)C)NC(=O)[C@H](Cc3ccc(-c4ccccc4)cc3)NC(=O)[C@H](C(C)C)NC2=O)c1 [Compound 3348] ({CH2CO}-[4Pal]Y(Carboxymethyl)D[Phe(3-Me)]V[Bip]V[Orn][dL][Dab][Cha]V[Orn]C[Orn][Aun]-OH; thioether N-14)
8.5 | CC(C)C[C@H]1NC(=O)[C@H](CCCN)NC(=O)[C@H](Cc2ccc(O)cc2)NC(=O)[C@H](Cc2ccc(-c3ccccc3)cc2)NC(=O)[C@H](C(C)C)NC(=O)[C@H](Cc2c[nH]c3ccccc23)NC(=O)[C@H](CC(=O)O)NC(=O)[C@H](Cc2ccc(OCC(=O)O)cc2)NC(=O)[C@H](CCCNC(=N)N)NC(=O)CSC[C@@H](C(=O)N[C@@H](CCN)C(=O)NCCCCCCCCCCC(=O)O)NC(=O)[C@H](CCC(=O)O)NC(=O)[C@H](C(C)C)NC(=O)[C@H](CC2CCCCC2)NC(=O)[C@H](CCN)NC1=O [Compound 3349] ({CH2CO}-RY(Carboxymethyl)DWV[Bip]Y[Orn][dL][Dab][Cha]VEC[Dab][Aun]-OH; thioether N-14)
6.3 | Cc1cccc(C[C@@H]2NC(=O)[C@H](CC(=O)O)NC(=O)[C@H](Cc3ccc(OCC(=O)O)cc3)NC(=O)[C@H](C(C)O)NC(=O)CSC[C@@H](C(=O)NCCOCCOCC(=O)NCCCCCCCCCCC(=O)O)NC(=O)[C@H](CCCN)NC(=O)[C@H](C(C)C)NC(=O)[C@H](CC3CCCCC3)NC(=O)[C@H](CCN)NC(=O)[C@@H](CC(C)C)NC(=O)[C@H](CCN)NC(=O)[C@H](C(C)C)NC(=O)[C@H](Cc3ccc(-c4ccccc4)cc3)NC(=O)[C@H](C(C)C)NC2=O)c1 (stereo partly drawn) [Compound 3350] ({CH2CO}-[Thr(3ξ)]Y(Carboxymethyl)D[Phe(3-Me)]V[Bip]V[Dab][dL][Dab][Cha]V[Orn]C[AEEA][Aun]-OH; thioether N-14)
4.2 | Cc1cccc(C[C@@H]2NC(=O)[C@H](CC(=O)O)NC(=O)[C@H](Cc3ccc(OCC(=O)O)cc3)NC(=O)[C@H](CCCNC(=N)N)NC(=O)CSC[C@@H](C(=O)NCCOCCOCC(=O)NCCCCCCCCCCC(=O)O)NC(=O)[C@H](CCCN)NC(=O)[C@H](C(C)C)NC(=O)[C@H](CC3CCCCC3)NC(=O)[C@H](CCN)NC(=O)[C@@H](CC(C)C)NC(=O)[C@H](CCN)NC(=O)[C@H](C(C)C)NC(=O)[C@H](Cc3ccc(-c4ccccc4)cc3)NC(=O)[C@H](C(C)C)NC2=O)c1 [Compound 3351] ({CH2CO}-RY(Carboxymethyl)D[Phe(3-Me)]V[Bip]V[Dab][dL][Dab][Cha]V[Orn]C[AEEA][Aun]-OH; thioether N-14)
26.5 | Cc1cccc(C[C@@H]2NC(=O)[C@H](CC(=O)O)NC(=O)[C@H](Cc3ccc(OCC(=O)O)cc3)NC(=O)[C@H](Cc3ccco3)NC(=O)CSC[C@@H](C(=O)N(C)[C@H](CC(N)=O)C(=O)NCCCCCCCCCCC(=O)O)NC(=O)[C@H](CCCN)NC(=O)[C@H](C(C)C)NC(=O)[C@H](CC3CCCCC3)NC(=O)[C@H](CCN)NC(=O)[C@@H](CC(C)C)NC(=O)[C@H](CCN)NC(=O)[C@H](C(C)C)NC(=O)[C@H](Cc3ccc(-c4ccccc4)cc3)NC(=O)[C@H](C(C)C)NC2=O)c1 [Compound 3352] ({CH2CO}-[Ala(2-furyl)]Y(Carboxymethyl)D[Phe(3-Me)]V[Bip]V[Dab][dL][Dab][Cha]V[Orn]C[dNMeN][Aun]-OH; thioether N-14)
140 | Cc1cccc(C[C@@H]2NC(=O)[C@H](CC(=O)O)NC(=O)[C@H](Cc3ccc(OCC(=O)O)cc3)NC(=O)[C@H](C(C)O)NC(=O)CSC[C@@H](C(=O)N(C)CCOCCOCC(=O)NCCCCCCCCCCC(=O)O)NC(=O)[C@H](CCCN)NC(=O)[C@H](C(C)C)NC(=O)[C@H](CC3CCCCC3)NC(=O)[C@H](CCN)NC(=O)[C@@H](CC(C)C)NC(=O)[C@H](CCN)NC(=O)[C@H](C(C)C)NC(=O)[C@H](Cc3ccc(-c4ccccc4)cc3)NC(=O)[C@H](C(C)C)NC2=O)c1 (stereo partly drawn) [Compound 3353] ({CH2CO}-[Thr(3ξ)]Y(Carboxymethyl)D[Phe(3-Me)]V[Bip]V[Dab][dL][Dab][Cha]V[Orn]C[NMeAEEA][Aun]-OH; thioether N-14)
